Measurements: patent US8143251B2, “Triazolotriazines as kinase inhibitors” (Incyte Corporation, priority 2006, dated 2012)

Target: T1, c-Met kinase (histidine-tagged c-Met catalytic domain fusion protein) (Homo sapiens, UniProt P08581)
T1 construct: histidine-tagged c-Met catalytic domain fusion protein (Invitrogen, #PV3143) was used for the assay; histidine tag; purchased Invitrogen PV3143
Assay: In vitro c-Met kinase enzyme assay
Assay type: biochemical
Conditions: poly Glu-Tyr phosphorylation, 5 μM ATP, 25 minutes at 30° C.; read-out: IC50 for the inhibition of c-Met kinase
Description: Compounds were screened in vitro for their ability to inhibit c-Met kinase activity. The IC50 values of compounds for the inhibition of c-Met kinase were determined as described in the literature with some modifications (Wang, X. et al, Mol. Cancer. Ther. 2003, 2(11):1085-1092; Calic, M. et al., Croatica Chemical ACTA. 2005, 78(3):367-374). Briefly, histidine-tagged c-Met catalytic domain fusion protein (Invitrogen, #PV3143) was used for the assay. IC50 measurements were based on the degree of phosphorylation of poly Glu-Tyr (Sigma-Aldrich, #PO275) that was coated (0.01 mg/per well) on 96-well microplates (R&D systems, #DY990). The reaction was carried out in a 50 μL solution containing 50 mM HEPES (pH 7.5), 10 mM MnCl2, 10 mM MgCl2, 0.5 mM DTT, 100 μM Na3VO4, 5 μM ATP (Cell Signaling Technology, #9804) and serial dilutions of individual compounds. The reaction lasted for 25 minutes at 30° C. After the reaction was completed, the contents of the plates was discarded. […] The optical density was measured immediately using a microplate reader at 450 nm with wavelength correction at 540 nm. IC50 values were calculated with the GraphPad Prism software. The linear range (i.e., the time period over which the rate remained equivalent to the initial rate) was determined for the kinase and IC50 determinations were performed within this range. […]

T1 sequence (P08581 1078-1345 limits assumed): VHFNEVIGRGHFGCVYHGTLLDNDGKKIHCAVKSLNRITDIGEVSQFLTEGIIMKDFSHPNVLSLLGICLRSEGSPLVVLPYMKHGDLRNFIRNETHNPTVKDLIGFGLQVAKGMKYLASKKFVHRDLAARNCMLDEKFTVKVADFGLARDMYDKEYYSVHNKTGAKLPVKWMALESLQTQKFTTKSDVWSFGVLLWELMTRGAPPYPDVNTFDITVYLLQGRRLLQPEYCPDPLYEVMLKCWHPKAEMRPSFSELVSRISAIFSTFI

IC50: 12.9 nM
SMILES: COc1ccc(C2(c3nnc4ncc(-c5ccccc5)nn34)CC2)cc1 [Example 26, 3-[1-(4-Methoxyphenyl)cyclopropyl]-6-phenyl[1,2,4]triazolo[4,3-b][1,2,4]triazine]
